Laboratory results reported in patent US20100021945A1, “DETERMINATION OF CHANGES IN CONCENTRATION” (JACOBS UNIVERSITY BREMEN GGMBH, priority 2006, published 2010).

Key:
arginase = biological target: T1, arginase (Homo sapiens, UniProt P05089); experiment: Arginase inhibitor screening, Hill analysis of fluorescence (DBO-amine/calixarene displacement assay); assay type: biochemical; conditions: 0.5 mM arginine, 16 μg/ml arginase, water pH 9.5, 100 μM DBO-amine, 200 μM p-sulphonato-calix[4]arene, 6 min incubation
T1 sequence (P05089 1-322): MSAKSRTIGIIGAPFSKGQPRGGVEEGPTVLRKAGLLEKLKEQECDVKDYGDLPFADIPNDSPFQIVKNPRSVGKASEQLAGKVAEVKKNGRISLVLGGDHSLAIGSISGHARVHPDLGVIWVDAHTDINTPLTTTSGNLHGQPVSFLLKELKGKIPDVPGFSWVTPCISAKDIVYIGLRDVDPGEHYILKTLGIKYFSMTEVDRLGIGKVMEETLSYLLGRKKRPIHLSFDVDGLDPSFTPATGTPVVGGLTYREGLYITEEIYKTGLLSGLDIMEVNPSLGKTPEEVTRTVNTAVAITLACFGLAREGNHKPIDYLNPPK
Description: What was selected as a fluorescent dye was 1-aminomethyl-2,3-diazabicyclo[2.2.2]oct-2-ene (101, DBO-amine) and p-sulphonato-calix[4]arene (a cation receptor) was used as the macrocycle, the fluorescence of the DBO-amine 101 being quenched by the calixarene.
The reaction was performed in the presence of 100 μM of the fluorescent dye DBO-amine and 200 μM of p-sulphonato-calix[4]arene in water at a pH of 9.5.
For this purpose, 0.5 mM of arginine was reacted with 16 μg/ml of arginase in different concentrations of the respective inhibitors. The solution (water, pH 9.5) also contained 100 μM of DBO-amine and 200 μM of p-sulphonato-calix[4]arene. For the Hill analysis, the intensity of fluorescence was plotted against the logarithm of the inhibitor concentration after an incubation time of 6 minutes.

[1] = Binding constants to the macrocycle by fluorescent dye (DBO-amine) displacement
Description: The binding constants were determined in water at a pH of 7 in the presence of 100 μM of DBO-amine and 200 μM of p-sulphonato-calix[4]arene.

[2] = Binding to macrocycle / dapoxyl displacement in the lysine decarboxylase assay; conditions: for binding constant K: cucurbit[7]uril, assay in 10 mM NH4OAc buffer pH 6.0
Source text: FIG. 5 is a reaction diagram for the conversion of L-lysine (505, analyte precursor) into cadaverine (503, analyte, removes the fluorescent dye) and CO2 (not shown, most of it escapes from the solution) by L-lysine decarboxylase. Dapoxyl (501) was selected as the fluorescent dye and cucurbit[7]uril (a cation receptor) as the macrocycle, the fluorescence of the dapoxyl (501) being increased by the complexing with cucurbit[7]uril. As a result of conversion of the analyte precursor 505 into the analyte 503, there is a decrease in fluorescence during the enzymatic reaction because more and more dye 501 is removed by the analyte and the increase in the fluorescence of the dapoxyl caused by the macrocycle thus falls off. The cucurbituril acts as a cation receptor which binds the cadaverine analyte 503, which has two positive charges, better than the L-lysine analyte precursor 505, which has a single positive charge (total charge). The schematic representation of the lysine decarboxylase enzyme is again that of the arginase which is used in FIG. 1, because no crystal structure exists for lysine decarboxylase. The representation was produced with the Swiss PdbViewer v3.7 program (http://www.expasy.org/spdbv/).
The reaction was carried out in the presence of 2.5 μM of dapoxyl and 200 μM of cucurbit[7]uril in a 10 mM NH4OAc buffer (pH 6.0). Without any chemical change to the L-lysine, without any radio-active marking, and without any antibodies, the enzymatic reaction could thus be followed easily, directly in solution without any further incubation stages, with the help of a commercially available fluorescence spectrometer (Varian Cary Eclipse, λexc=336 nm, λobs=390 nm in the present case). It can clearly be seen in this case that the binding constants of lysine (K approx. 2000 M^−1) and cadaverine (K>1000000 M^−1) are very different. […] This is not a problem inasmuch as it is generally only the initial speed as it were of an enzymatic reaction which is determined in order to characterise the reaction. […]

SMILES | Ki (arginase) [nM] | binding constant K [2] | further results
N[C@@H](CCCCB(O)O)C(=O)O [ABH, 2(s)-amino-6-boronohexanoic acid] | 1000 ± 100 |  | 
N[C@@H](CSCCB(O)O)C(=O)O [BEC, S-(2-boronethyl)-L-cysteine] | 4900 ± 500 |  | 
N=C(N)NCCC[C@H](N)C(=O)O [arginine, L-arginine] |  |  | binding constant K to the macrocycle ([1]; water, pH 7, 100 μM DBO-amine, 200 μM p-sulphonato-calix[4]arene): 3170 ± 130 M⁻¹
NCCCCCN [cadaverine] |  | > 1000000 M⁻¹ | concentration enough to remove all the fluorescent dye from the macrocycle ([2]; 2.5 μM dapoxyl, 200 μM cucurbit[7]uril, 10 mM NH4OAc buffer pH 6.0): 100 μm
NCCCC[C@H](N)C(=O)O [lysine, L-lysine] |  | approx. 2000 M^−1 | 
NC(N)=O [urea] |  |  | binding constant to the macrocycle (in words) ([1]; uncharged molecule with a cation receptor, binding can be ignored): extremely low binding constant
